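A five-concentration, 48-hour dose response in 96-well plates underlies each endpoint, interpolated linearly between surrounding concentrations. Definition used: TGI = concentration required for complete inhibition of growth.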
Columns and labels:
Experiment in all cases: NCI tumour cell line growth inhibition, 48 h
786-0 renal = test system: 786-0 renal
EKVX NSCLC = test system: EKVX NSCLC
HCC-2998 colon = test system: HCC-2998 colon
HOP-92 NSCLC = test system: HOP-92 NSCLC
IGROV1 ovarian = test system: IGROV1 ovarian
OVCAR-3 ovarian = test system: OVCAR-3 ovarian
OVCAR-5 ovarian = test system: OVCAR-5 ovarian
OVCAR-8 ovarian = test system: OVCAR-8 ovarian
SNB-75 CNS = test system: SNB-75 CNS
SW-620 colon = test system: SW-620 colon
T-47D breast = test system: T-47D breast
UO-31 renal = test system: UO-31 renal

Row | Structure (SMILES) | TGI (786-0 renal) | TGI (EKVX NSCLC) | TGI (HCC-2998 colon) | TGI (HOP-92 NSCLC) | TGI (IGROV1 ovarian) | TGI (OVCAR-3 ovarian) | TGI (OVCAR-5 ovarian) | TGI (OVCAR-8 ovarian) | TGI (SNB-75 CNS) | TGI (SW-620 colon) | TGI (T-47D breast) | TGI (UO-31 renal)
1 | CS(C)(=O)=N/C=C\C(=O)C(Cl)(Cl)Cl | > 100 µM | > 100 µM | > 100 µM | > 100 µM | > 100 µM | > 100 µM | > 100 µM | > 100 µM | > 100 µM | > 100 µM | > 100 µM | > 100 µM
2 | COc1ccc2c(c1)/C(=C(\C(Cl)=C(Cl)Cl)[N+](=O)[O-])N2 | > 100 µM | > 100 µM | > 100 µM | > 100 µM | > 100 µM | > 100 µM | > 100 µM | > 100 µM | > 100 µM | > 100 µM | > 100 µM | > 100 µM
3 | CN1CN(c2ccccc2)C2(CCNCC2)C1=O | > 100 µM | > 100 µM | > 100 µM | > 100 µM | > 100 µM | > 100 µM | > 100 µM | > 100 µM | > 100 µM | > 100 µM | > 100 µM | > 100 µM
4 | COc1cc2c(cc1C)NC(=O)/C2=C/c1c(Cl)[nH]c2cc(C)c(OC)cc12 | 18.2 µM | 22.8 µM | 11 µM | 23.7 µM | 16.1 µM | 8.6 µM | 25.8 µM | 24.1 µM | 11.8 µM | 19.7 µM | 25.8 µM | 23.4 µM
5 | O=C1CCc2c3c(c4c([nH]c5ccccc54)c2CC1)C(=O)NC3=O | > 100 µM | > 100 µM | > 100 µM | 82 µM | 13.7 µM | > 100 µM | > 100 µM | 38.2 µM | 0.61 µM | > 100 µM | 6.01 µM | 14.7 µM
6 | NS(=O)(=O)c1ccc(NNC(=O)c2cccc3c(=O)c4ccccc4[nH]c23)cc1 | > 100 µM | > 100 µM | > 100 µM | > 100 µM | > 100 µM | > 100 µM | > 100 µM | > 100 µM | > 100 µM | > 100 µM | > 100 µM | > 100 µM
7 | C/C(Cl)=N\OC(=O)Nc1ccc([N+](=O)[O-])cc1 | 18.4 µM | 35.2 µM | 29.8 µM | 5.65 µM | 38.5 µM | 6.1 µM | 30.8 µM | 32.2 µM | 31.4 µM | 4.06 µM | 36.8 µM | 11.4 µM
8 | c1ccc(Cc2cccc3cc(-c4ccc(-c5ccccc5)cc4)[nH]c23)cc1 | > 100 µM | > 100 µM | > 100 µM | > 100 µM | > 100 µM | > 100 µM | > 100 µM | > 100 µM | > 100 µM | > 100 µM | > 100 µM | > 100 µM
9 | Cc1c2c(c(C)c3c[n+](C)ccc13)Oc1ccccc1O2 | > 100 µM | > 100 µM | 19.8 µM | 99.8 µM | 50 µM | 17.5 µM | > 31.6 µM | > 54 µM | 17.5 µM | > 52.8 µM | 25.7 µM | > 100 µM
10 | CCCCC1Cc2cc(O)ccc2-c2n1c1cc(O)ccc1[n+]2C (stereo not given) (tested in a mixture with another compound) | > 100 µM | > 100 µM | > 100 µM | 73.8 µM | > 83.8 µM | 98.7 µM | > 100 µM | > 100 µM | > 100 µM | > 100 µM | > 100 µM | > 100 µM
11 | COc1ccc(-c2cc(-c3ccccc3)n(C3OC(COC(C)=O)C(OC(C)=O)C(OC(C)=O)C3OC(C)=O)c(=S)c2C#N)cc1 (stereo not given) | 12.4 µM | 31.9 µM | > 100 µM | 15.5 µM | 32 µM | 23.5 µM | 29.2 µM | 19.7 µM | 19.2 µM | > 100 µM | 25.7 µM | 21.3 µM
12 | CCOC(=O)c1ccc(N=C2SC(=S)N(c3ccc(F)cc3)C2=Nc2ccc(C(=O)OCC)cc2)cc1 | 31.6 µM | 63.9 µM | > 80.5 µM | 26 µM | 30.8 µM | > 53.7 µM | 38.7 µM | 22.3 µM | 52.4 µM | 30 µM | 22.7 µM | 28 µM
13 | CCN(CC)CC(O)c1ccc2ccc3ccccc3c2c1 (stereo not given) | 25.6 µM | 29.5 µM | 23 µM | 31.3 µM | 33 µM | 29.1 µM | 27.5 µM | 32 µM | 33.5 µM | 34.9 µM | 37.7 µM | 24.1 µM
14 | CCN(CC)CCn1ncc2ccc3c(c(=O)c4cccnc4n3CCN(CC)CC)c21 | 4.6 µM | 6.83 µM | 2.14 µM | 4.37 µM | 4.22 µM | 4.12 µM | > 7.07 µM | 3.63 µM | 2.81 µM | > 6.66 µM | > 9.48 µM | > 8.52 µM
15 | CCOC(=O)C(Cc1ccc2c(c1)CCC2)(Cc1ccc2c(c1)CCC2)C(=O)OCC | > 100 µM | > 100 µM | > 100 µM | > 100 µM | > 100 µM | > 100 µM | > 100 µM | > 100 µM | > 100 µM | > 100 µM | > 100 µM | > 100 µM
16 | NNC(N)=Nc1cccc2ccccc12 | > 100 µM | > 100 µM | > 100 µM | 92.4 µM | > 100 µM | – | > 100 µM | > 100 µM | > 100 µM | > 100 µM | > 100 µM | > 100 µM
17 | Cc1csc2c(P(=O)(OC(C)C)OC(C)C)c(-c3ccccc3)cn12 | 30.7 µM | 32.5 µM | 28.5 µM | 33.5 µM | 31.9 µM | 28.2 µM | 28.8 µM | 33 µM | 27.7 µM | 35.8 µM | 16.2 µM | 31.8 µM

Row | Structure (SMILES) | TGI (786-0 renal) | TGI (EKVX NSCLC) | TGI (HCC-2998 colon) | TGI (HOP-92 NSCLC) | TGI (IGROV1 ovarian) | TGI (OVCAR-3 ovarian) | TGI (OVCAR-5 ovarian) | TGI (OVCAR-8 ovarian) | TGI (SNB-75 CNS) | TGI (SW-620 colon) | TGI (T-47D breast) | TGI (UO-31 renal)
18 | O=C1C=C2S[C@H]3C[C@]2(C=C1Br)c1c(c(O)c2c4c1=NCCC=4C=N2)N3 | 2.14 µM | 3.19 µM | 4.98 µM | 2.28 µM | 2.92 µM | 1.12 µM | 3.25 µM | 1.56 µM | 2.92 µM | 0.237 µM | 0.89 µM | 2.94 µM
19 | Cc1ccnc(NS(=O)(=O)c2ccc(NC(=O)c3ccc4nc5ccccc5c(Nc5ccc(S(=O)(=O)Nc6nccc(C)n6)cc5)c4c3)cc2)n1 | > 100 µM | > 100 µM | > 100 µM | 55.4 µM | > 100 µM | 95.6 µM | > 100 µM | > 100 µM | > 100 µM | > 100 µM | > 100 µM | > 100 µM
20 | COc1ccc2c(c1)/C(=C(\C(Cl)=C(\Cl)N1CCCCC1)[N+](=O)[O-])N2 | > 100 µM | > 100 µM | > 100 µM | > 100 µM | > 100 µM | > 100 µM | > 100 µM | > 100 µM | > 100 µM | > 100 µM | > 100 µM | > 100 µM
21 | CC1=C(C)C(=O)OC(C(C)(O)C2(O)CCC3(O)C4CC(Cl)C5(O)C(O)C=CC(=O)C5(C)C4CCC32C)C1 (stereo not given) | > 100 µM | > 100 µM | > 100 µM | > 100 µM | > 100 µM | > 100 µM | > 100 µM | > 100 µM | > 100 µM | 59.1 µM | > 100 µM | > 100 µM
22 | COC(=O)C12CCC(C(=O)OC)(Cc3c(c4ccccc4n3S(=O)(=O)c3ccccc3)C1)C2=O (stereo not given) | > 69.6 µM | > 100 µM | > 100 µM | > 100 µM | > 100 µM | > 100 µM | > 94.6 µM | > 100 µM | > 100 µM | > 100 µM | > 100 µM | > 100 µM
23 | COC(=O)N1CC[C@@H]2CCC=C(c3cccc4c3OCO4)[C@@H]21 | > 100 µM | > 100 µM | > 100 µM | > 100 µM | > 100 µM | > 100 µM | > 100 µM | > 100 µM | 62 µM | > 100 µM | > 100 µM | > 100 µM
24 | Clc1cc2nc(C3CCCO3)[nH]c2cc1Cl (stereo not given) | > 100 µM | > 100 µM | > 100 µM | > 100 µM | > 100 µM | > 100 µM | > 100 µM | > 100 µM | > 100 µM | > 100 µM | > 100 µM | 53.9 µM
25 | Oc1c(C(O)(c2ccccc2)c2ccc3ccccc3c2O)ccc2ccccc12 | > 69 µM | 50.7 µM | 20 µM | 24.1 µM | 24.7 µM | 30.8 µM | 38.3 µM | 29.7 µM | 34.5 µM | 41.8 µM | 32.5 µM | 24.7 µM
26 | CCN(CC)CCN1c2ccccc2Sc2ccc3ccccc3c21 | 23.9 µM | 20.1 µM | 6.86 µM | 12.8 µM | 24.5 µM | 24.6 µM | 23 µM | 26.8 µM | 19.9 µM | 24.4 µM | 19.1 µM | 19.1 µM
27 | CC(C)(C)OC(=O)N1C(C2=COc3ccccc3O2)=COc2ccccc21 | > 100 µM | 52.3 µM | 37.2 µM | 73.2 µM | > 100 µM | 47.2 µM | 99.1 µM | > 100 µM | > 100 µM | 67.8 µM | 50.4 µM | > 100 µM
28 | O=C(CC(=O)c1ccncc1)c1ccccc1 | > 100 µM | > 100 µM | > 100 µM | > 100 µM | > 100 µM | > 100 µM | > 100 µM | > 100 µM | > 100 µM | > 100 µM | > 100 µM | > 100 µM
29 | CCOC(=O)C(SCCO)C(C(=O)OCC)n1ccc(N)nc1=O (stereo not given) | > 100 µM | > 100 µM | > 100 µM | > 100 µM | > 100 µM | > 100 µM | > 100 µM | > 100 µM | > 100 µM | > 100 µM | > 100 µM | > 100 µM
30 | COc1ccc(C2CCc3nc4nc(N)nc(N)c4cc3C2)cc1 (stereo not given) | 17 µM | > 100 µM | > 100 µM | 9.31 µM | 37.9 µM | 43.9 µM | > 100 µM | 22.5 µM | 5.09 µM | > 100 µM | 44.7 µM | –
31 | COc1ccc2nc(-c3ccc(OC(=O)N(C)C)cc3)cn2c1 | > 100 µM | > 100 µM | > 100 µM | > 100 µM | > 100 µM | > 100 µM | > 100 µM | > 100 µM | > 100 µM | > 100 µM | > 100 µM | –
32 | O=[N+]([O-])c1cc2n[nH]nc2c2nonc12 | > 100 µM | > 100 µM | 38.7 µM | > 100 µM | > 100 µM | 95.1 µM | 76.5 µM | 58.1 µM | > 100 µM | > 100 µM | > 100 µM | 38.6 µM
33 | NC(=O)c1cnc2sc3ccccc3n2c1=O | > 100 µM | > 100 µM | > 100 µM | > 100 µM | > 100 µM | > 100 µM | > 100 µM | > 100 µM | > 100 µM | > 100 µM | > 100 µM | > 100 µM
34 | CCCCCCCCCc1cc(O)c(O)cc1CCCCCCCCC | > 10 µM | > 10 µM | > 10 µM | > 10 µM | > 10 µM | > 10 µM | > 10 µM | > 10 µM | > 10 µM | > 10 µM | > 10 µM | > 10 µM

— PubChem BioAssay (NCI)
